Reference: paper PMC5078040 (Oncotarget, 2016)
pEC50: −log10 of the molar value.

Tests used:
OCI-AML-2 = assay: Anti-proliferative assay; format: cell-based; details: Homo sapiens, OCI-AML2; OCI-AML-2, AML-M4; 72 hours, CellTiter-Glo
Method: (§1) Cells were grown in 96-well culture plates (3000-4000/well). […] Cell proliferation was determined after treatment with compounds for 72 hours. Cell viability was measured using the CellTiter–Glo Assay Kit (Promega, USA), according to the manufacturer's instructions, and luminescence was measured in a multi-label reader (Envision, PerkinElmer, USA). Data were normalized to control groups (DMSO) and represented by the mean of three independent measurements with standard error <20%. GI50 values were calculated using Prism 5.0 (GraphPad Software, San Diego, CA).

Hs 505T = assay: Anti-proliferative assay; format: cell-based; details: Homo sapiens, CLL, 72 hours, CellTiter-Glo
Method: as §1

PF382 = assay: Anti-proliferative assay; format: cell-based; details: Homo sapiens, PF-382; PF382, ALL; 72 hours, CellTiter-Glo
Method: as §1

HEL = assay: Anti-proliferative assay; format: cell-based; details: Homo sapiens, AML-M6, 72 hours, CellTiter-Glo
Method: as §1

NOMO-1 = assay: Anti-proliferative assay; format: cell-based; details: Homo sapiens; NOMO-1, AML-M5; 72 hours, CellTiter-Glo
Method: as §1

OCI-AML-3 = assay: Anti-proliferative assay; format: cell-based; details: Homo sapiens; OCI-AML-3, AML-M4; 72 hours, CellTiter-Glo
Method: as §1

NALM-6 = assay: Anti-proliferative assay; format: cell-based; details: Homo sapiens, 72 hours, CellTiter-Glo
Method: as §1

MEC-2 = assay: Anti-proliferative assay; format: cell-based; details: Homo sapiens, MEC2; MEC-2, CLL; 72 hours, CellTiter-Glo
Method: as §1

RPMI8226 = assay: Anti-proliferative assay; format: cell-based; details: Homo sapiens, RPMI-8226; RPMI8226, MM; 72 hours, CellTiter-Glo
Method: as §1

TESK1 = target: T1, TESK1 (Homo sapiens, UniProt Q15569); assay: KinomeScan; format: binding; details: 1uM
T1 construct: purchased DiscoveRx KINOMEscan

CASK = target: T2, CASK (Homo sapiens, UniProt O14936); assay: KinomeScan; format: binding; details: 1uM
T2 construct: purchased DiscoveRx KINOMEscan

BLK = target: T3, BLK (Homo sapiens, UniProt P51451); assay: KinomeScan; format: binding; details: 1uM
T3 construct: purchased DiscoveRx KINOMEscan

[1] = target: T4, JAK2(JH1domain-catalytic) (Homo sapiens, UniProt O60674); assay: KinomeScan; format: binding; details: 1uM
T4 construct: JAK2(JH1domain-catalytic); purchased DiscoveRx KINOMEscan

PIK3CA(Q546K) = target: T5, PIK3CA(Q546K) (Homo sapiens, UniProt P42336, Q546K); assay: KinomeScan; format: binding; details: 1uM
T5 construct: purchased DiscoveRx KINOMEscan

CAMK1G = target: T6, CAMK1G (Homo sapiens, UniProt Q96NX5); assay: KinomeScan; format: binding; details: 1uM
T6 construct: purchased DiscoveRx KINOMEscan

DRAK2 = target: T7, DRAK2 (Homo sapiens, UniProt O94768); assay: KinomeScan; format: binding; details: 1uM
T7 construct: purchased DiscoveRx KINOMEscan

p38-beta = target: T8, p38-beta (Homo sapiens, UniProt Q15759); assay: KinomeScan; format: binding; details: 1uM
T8 construct: purchased DiscoveRx KINOMEscan

ACVR2B = target: T9, ACVR2B (Homo sapiens, UniProt Q13705); assay: KinomeScan; format: binding; details: 1uM
T9 construct: purchased DiscoveRx KINOMEscan

CDK3 = target: T10, CDK3 (Homo sapiens, UniProt Q00526); assay: KinomeScan; format: binding; details: 1uM
T10 construct: purchased DiscoveRx KINOMEscan

TRKC = target: T11, TRKC (Homo sapiens, UniProt Q16288); assay: KinomeScan; format: binding; details: 1uM
T11 construct: purchased DiscoveRx KINOMEscan

IKK-epsilon = target: T12, IKK-epsilon (Homo sapiens, UniProt Q14164); assay: KinomeScan; format: binding; details: 1uM
T12 construct: purchased DiscoveRx KINOMEscan

RET(V804L) = target: T13, RET(V804L) (Homo sapiens, UniProt P07949, V804L); assay: KinomeScan; format: binding; details: 1uM
T13 construct: purchased DiscoveRx KINOMEscan

[2] = target: T14, RPS6KA5(Kin.Dom.1-N-terminal) (Homo sapiens, UniProt O75582); assay: KinomeScan; format: binding; details: 1uM
T14 construct: RPS6KA5(Kin.Dom.1-N-terminal); purchased DiscoveRx KINOMEscan

CLL patient primary cell = assay: Anti-proliferative efficacy against patient primary cells; format: cell-based; details: Homo sapiens
Method: Peripheral blood mononuclear cells (PBMCs) from individuals with CLL were isolated by density centrifugation through Ficoll and frozen for each subject. Those subjects with low white counts whose CLL cell purity was expected to be < 85% underwent B cell isolation using RosetteSep. The protocol was approved by the Dana-Farber Harvard Cancer Center Institutional Review Board and all subjects signed written informed consent prior to participation.
as §1

MAP3K2 = target: T15, MAP3K2 (Homo sapiens, UniProt Q9Y2U5); assay: KinomeScan; format: binding; details: 1uM
T15 construct: purchased DiscoveRx KINOMEscan

PIK4CB = target: T16, PIK4CB (Homo sapiens, UniProt Q9UBF8); assay: KinomeScan; format: binding; details: 1uM
T16 construct: purchased DiscoveRx KINOMEscan

PI3Kδ = PI3Kδ (Homo sapiens, UniProt O00329); assay: PI3Ks isoform in cell EC50 assay (AKT phosphorylation, Western Blotting); format: cell-based; set-up: endogenous in cells; host or cells: Raji; details: Raji cells, 1μg/ml anti-IgM, Akt phosphorylation at T308; read-out: cellular EC50 PI3K Delta
EGFR(L858R) = target: T17, EGFR(L858R) (Homo sapiens, UniProt P00533, L858R); assay: KinomeScan; format: binding; details: 1uM
T17 construct: purchased DiscoveRx KINOMEscan

DAPK2 = target: T18, DAPK2 (Homo sapiens, UniProt Q9UIK4); assay: KinomeScan; format: binding; details: 1uM
T18 construct: purchased DiscoveRx KINOMEscan

TIE2 = target: T19, TIE2 (Homo sapiens, UniProt Q02763); assay: KinomeScan; format: binding; details: 1uM
T19 construct: purchased DiscoveRx KINOMEscan

HIPK3 = target: T20, HIPK3 (Homo sapiens, UniProt Q9H422); assay: KinomeScan; format: binding; details: 1uM
T20 construct: purchased DiscoveRx KINOMEscan

PIP5K2C = target: T21, PIP5K2C (Homo sapiens, UniProt Q8TBX8); assay: KinomeScan; format: binding; details: 1uM
T21 construct: purchased DiscoveRx KINOMEscan

p38-gamma = target: T22, p38-gamma (Homo sapiens, UniProt P53778); assay: KinomeScan; format: binding; details: 1uM
T22 construct: purchased DiscoveRx KINOMEscan

PAK6 = target: T23, PAK6 (Homo sapiens, UniProt Q9NQU5); assay: KinomeScan; format: binding; details: 1uM
T23 construct: purchased DiscoveRx KINOMEscan

T21 sequence (Q8TBX8 whole entry): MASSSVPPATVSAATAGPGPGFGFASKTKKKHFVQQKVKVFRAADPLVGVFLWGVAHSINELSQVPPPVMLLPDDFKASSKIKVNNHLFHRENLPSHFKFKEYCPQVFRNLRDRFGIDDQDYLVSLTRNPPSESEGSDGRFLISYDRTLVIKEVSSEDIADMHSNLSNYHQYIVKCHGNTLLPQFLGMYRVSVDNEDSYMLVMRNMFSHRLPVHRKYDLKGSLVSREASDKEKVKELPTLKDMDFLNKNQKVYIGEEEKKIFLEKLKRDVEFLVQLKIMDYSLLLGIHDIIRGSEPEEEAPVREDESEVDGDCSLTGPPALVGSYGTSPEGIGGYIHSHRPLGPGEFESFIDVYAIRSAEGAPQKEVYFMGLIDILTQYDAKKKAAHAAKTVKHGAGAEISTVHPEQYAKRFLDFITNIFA
T11 sequence (Q16288 32-839): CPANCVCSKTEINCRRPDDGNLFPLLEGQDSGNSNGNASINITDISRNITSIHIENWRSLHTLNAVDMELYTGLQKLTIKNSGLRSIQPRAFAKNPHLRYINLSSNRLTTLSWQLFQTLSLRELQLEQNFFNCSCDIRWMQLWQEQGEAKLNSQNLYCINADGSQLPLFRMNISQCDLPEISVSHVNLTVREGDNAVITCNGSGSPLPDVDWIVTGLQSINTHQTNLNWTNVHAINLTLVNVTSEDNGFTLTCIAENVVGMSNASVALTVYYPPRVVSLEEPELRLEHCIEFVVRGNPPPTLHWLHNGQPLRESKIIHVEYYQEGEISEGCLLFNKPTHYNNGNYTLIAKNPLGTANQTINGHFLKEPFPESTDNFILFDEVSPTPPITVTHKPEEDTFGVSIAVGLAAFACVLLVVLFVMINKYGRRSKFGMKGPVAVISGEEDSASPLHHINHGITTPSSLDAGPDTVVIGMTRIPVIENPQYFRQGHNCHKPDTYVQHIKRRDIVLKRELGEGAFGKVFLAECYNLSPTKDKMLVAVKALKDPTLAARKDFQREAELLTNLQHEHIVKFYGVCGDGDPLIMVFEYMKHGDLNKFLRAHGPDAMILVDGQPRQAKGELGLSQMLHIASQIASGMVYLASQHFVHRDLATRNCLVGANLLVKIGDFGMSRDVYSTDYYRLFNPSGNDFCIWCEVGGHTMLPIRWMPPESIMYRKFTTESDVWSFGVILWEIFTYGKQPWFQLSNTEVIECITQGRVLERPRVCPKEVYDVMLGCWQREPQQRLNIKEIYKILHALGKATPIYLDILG
T10 sequence (Q00526 whole entry): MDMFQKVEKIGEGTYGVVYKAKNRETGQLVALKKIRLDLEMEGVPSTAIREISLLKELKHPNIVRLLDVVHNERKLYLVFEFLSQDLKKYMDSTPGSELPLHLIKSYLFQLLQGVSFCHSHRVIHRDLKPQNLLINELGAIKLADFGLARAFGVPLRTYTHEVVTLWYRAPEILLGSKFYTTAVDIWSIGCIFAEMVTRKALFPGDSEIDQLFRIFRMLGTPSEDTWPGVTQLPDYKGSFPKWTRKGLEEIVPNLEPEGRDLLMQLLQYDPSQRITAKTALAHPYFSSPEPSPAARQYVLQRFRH
T18 sequence (Q9UIK4 whole entry): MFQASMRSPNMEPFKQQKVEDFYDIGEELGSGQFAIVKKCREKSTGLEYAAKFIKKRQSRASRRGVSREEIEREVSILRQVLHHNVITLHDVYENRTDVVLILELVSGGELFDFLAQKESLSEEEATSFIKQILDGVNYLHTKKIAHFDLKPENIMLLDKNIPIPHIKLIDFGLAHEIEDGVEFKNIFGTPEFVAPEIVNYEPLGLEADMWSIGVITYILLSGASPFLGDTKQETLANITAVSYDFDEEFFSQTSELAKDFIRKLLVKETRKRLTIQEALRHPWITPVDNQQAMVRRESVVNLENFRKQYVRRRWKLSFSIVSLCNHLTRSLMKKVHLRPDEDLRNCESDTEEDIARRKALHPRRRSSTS
T9 sequence (Q13705 19-512): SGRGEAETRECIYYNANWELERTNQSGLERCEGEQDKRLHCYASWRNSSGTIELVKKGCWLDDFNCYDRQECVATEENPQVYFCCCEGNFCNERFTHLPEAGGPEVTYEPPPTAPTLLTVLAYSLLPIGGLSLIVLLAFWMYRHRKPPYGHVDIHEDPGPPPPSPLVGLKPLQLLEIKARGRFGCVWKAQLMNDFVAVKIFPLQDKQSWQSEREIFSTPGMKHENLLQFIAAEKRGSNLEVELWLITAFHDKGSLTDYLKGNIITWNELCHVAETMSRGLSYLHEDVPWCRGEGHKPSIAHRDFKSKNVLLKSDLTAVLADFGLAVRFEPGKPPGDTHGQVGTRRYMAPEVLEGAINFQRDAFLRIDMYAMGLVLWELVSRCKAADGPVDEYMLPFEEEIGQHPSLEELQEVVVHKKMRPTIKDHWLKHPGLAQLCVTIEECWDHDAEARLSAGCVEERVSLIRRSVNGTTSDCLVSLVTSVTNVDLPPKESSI
T16 sequence (Q9UBF8 whole entry): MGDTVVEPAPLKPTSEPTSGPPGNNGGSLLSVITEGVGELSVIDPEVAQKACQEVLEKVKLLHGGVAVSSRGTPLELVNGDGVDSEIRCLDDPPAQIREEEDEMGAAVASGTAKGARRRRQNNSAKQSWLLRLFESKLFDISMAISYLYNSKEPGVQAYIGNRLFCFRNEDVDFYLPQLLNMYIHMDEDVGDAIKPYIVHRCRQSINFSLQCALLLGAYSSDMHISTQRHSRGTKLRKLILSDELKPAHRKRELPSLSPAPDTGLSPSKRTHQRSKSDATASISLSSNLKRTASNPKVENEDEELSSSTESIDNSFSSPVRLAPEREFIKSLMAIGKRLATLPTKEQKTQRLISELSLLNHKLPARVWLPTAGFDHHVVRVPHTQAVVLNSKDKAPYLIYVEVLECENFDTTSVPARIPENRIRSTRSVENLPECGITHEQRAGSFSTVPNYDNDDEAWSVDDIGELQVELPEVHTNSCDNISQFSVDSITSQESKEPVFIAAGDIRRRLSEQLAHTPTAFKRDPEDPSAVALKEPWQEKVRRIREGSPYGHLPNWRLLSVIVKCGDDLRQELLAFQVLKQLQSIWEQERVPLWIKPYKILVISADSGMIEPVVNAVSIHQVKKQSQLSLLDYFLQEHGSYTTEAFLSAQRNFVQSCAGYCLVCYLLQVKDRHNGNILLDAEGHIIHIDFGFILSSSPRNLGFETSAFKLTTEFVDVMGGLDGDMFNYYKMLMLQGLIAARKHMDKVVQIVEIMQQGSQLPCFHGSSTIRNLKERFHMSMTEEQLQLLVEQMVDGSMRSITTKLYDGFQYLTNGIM
T12 sequence (Q14164 whole entry): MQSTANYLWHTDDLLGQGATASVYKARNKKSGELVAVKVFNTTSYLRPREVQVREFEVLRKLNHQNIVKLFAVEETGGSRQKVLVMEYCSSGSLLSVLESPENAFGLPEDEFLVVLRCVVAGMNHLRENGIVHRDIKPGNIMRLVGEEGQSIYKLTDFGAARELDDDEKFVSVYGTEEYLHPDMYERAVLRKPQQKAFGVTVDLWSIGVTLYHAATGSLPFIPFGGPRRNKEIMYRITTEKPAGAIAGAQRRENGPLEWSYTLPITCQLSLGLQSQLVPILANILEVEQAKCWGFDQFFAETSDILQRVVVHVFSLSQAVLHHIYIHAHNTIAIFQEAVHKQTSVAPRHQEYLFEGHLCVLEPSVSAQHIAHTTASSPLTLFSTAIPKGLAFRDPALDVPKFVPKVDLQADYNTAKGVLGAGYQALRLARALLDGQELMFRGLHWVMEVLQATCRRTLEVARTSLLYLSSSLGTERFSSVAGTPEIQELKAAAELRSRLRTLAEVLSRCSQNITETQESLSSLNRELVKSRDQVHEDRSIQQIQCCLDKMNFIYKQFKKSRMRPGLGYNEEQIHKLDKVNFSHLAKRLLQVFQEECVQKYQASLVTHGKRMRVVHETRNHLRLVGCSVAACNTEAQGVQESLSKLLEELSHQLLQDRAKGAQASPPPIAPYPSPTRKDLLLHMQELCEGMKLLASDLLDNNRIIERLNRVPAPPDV
T15 sequence (Q9Y2U5 whole entry): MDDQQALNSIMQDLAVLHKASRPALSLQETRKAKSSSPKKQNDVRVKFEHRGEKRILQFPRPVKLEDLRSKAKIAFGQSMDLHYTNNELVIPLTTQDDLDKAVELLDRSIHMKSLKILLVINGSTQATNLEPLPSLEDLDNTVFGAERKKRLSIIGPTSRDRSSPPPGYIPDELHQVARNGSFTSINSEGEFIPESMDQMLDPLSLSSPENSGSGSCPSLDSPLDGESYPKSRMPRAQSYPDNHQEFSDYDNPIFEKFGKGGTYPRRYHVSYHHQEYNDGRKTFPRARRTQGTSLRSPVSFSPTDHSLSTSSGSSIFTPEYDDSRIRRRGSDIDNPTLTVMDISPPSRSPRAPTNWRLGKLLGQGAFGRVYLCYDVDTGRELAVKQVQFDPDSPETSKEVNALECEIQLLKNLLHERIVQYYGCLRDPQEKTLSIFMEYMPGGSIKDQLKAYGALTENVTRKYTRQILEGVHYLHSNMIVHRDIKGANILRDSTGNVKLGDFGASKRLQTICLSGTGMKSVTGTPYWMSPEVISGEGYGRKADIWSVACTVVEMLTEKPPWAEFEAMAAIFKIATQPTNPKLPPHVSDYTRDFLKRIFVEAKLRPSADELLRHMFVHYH
T7 sequence (O94768 whole entry): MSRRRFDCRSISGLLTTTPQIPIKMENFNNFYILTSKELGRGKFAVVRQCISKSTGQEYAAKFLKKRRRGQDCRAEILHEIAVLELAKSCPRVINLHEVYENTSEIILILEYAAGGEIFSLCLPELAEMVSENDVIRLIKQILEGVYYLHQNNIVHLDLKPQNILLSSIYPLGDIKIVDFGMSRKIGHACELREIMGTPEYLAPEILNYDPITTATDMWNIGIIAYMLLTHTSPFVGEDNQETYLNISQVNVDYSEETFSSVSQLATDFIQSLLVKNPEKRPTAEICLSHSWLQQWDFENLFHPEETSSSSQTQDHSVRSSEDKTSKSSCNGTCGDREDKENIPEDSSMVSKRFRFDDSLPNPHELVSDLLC

## Cc1nc(NC(=O)[C@@H](N)C(C)C)sc1-c1cnc(Cl)c(NS(=O)(=O)c2ccccc2)c1 [PI3KD-IN-015]
OCI-AML-2
  GI50: 1800 nM
Hs 505T
  GI50: > 10000 nM
PF382
  GI50: 3200 nM
HEL
  GI50: > 10000 nM
NOMO-1
  GI50: 1400 nM
OCI-AML-3
  GI50: 3100 nM
NALM-6
  GI50: 1800 nM
MEC-2
  GI50: > 10000 nM
RPMI8226
  GI50: 2500 nM
TESK1
  KinomeScan TESK1: 100
CASK
  KinomeScan CASK: 95
BLK
  KinomeScan BLK: 97
[1]
  KinomeScan JAK2(JH1domain-catalytic): 96
PIK3CA(Q546K)
  KinomeScan PIK3CA(Q546K): 4.1
CAMK1G
  KinomeScan CAMK1G: 94
DRAK2
  KinomeScan DRAK2: 70
p38-beta
  KinomeScan p38-beta: 86
ACVR2B
  KinomeScan ACVR2B: 100
CDK3
  KinomeScan CDK3: 100
TRKC
  KinomeScan TRKC: 100
IKK-epsilon
  KinomeScan IKK-epsilon: 100
RET(V804L)
  KinomeScan RET(V804L): 97
[2]
  KinomeScan RPS6KA5(Kin.Dom.1-N-terminal): 100
CLL patient primary cell; patient primary cell CLL16
  GI50: 7800 nM
CLL patient primary cell; patient primary cell CLL18
  GI50: > 10000 nM
CLL patient primary cell; patient primary cell CLL19
  GI50: 1500 nM
MAP3K2
  KinomeScan MAP3K2: 100
PIK4CB
  KinomeScan PIK4CB: 0.8
PI3Kδ
  pEC50: 7.89
EGFR(L858R)
  KinomeScan EGFR(L858R): 100
DAPK2
  KinomeScan DAPK2: 97
TIE2
  KinomeScan TIE2: 89
HIPK3
  KinomeScan HIPK3: 100
PIP5K2C
  KinomeScan PIP5K2C: 90
p38-gamma
  KinomeScan p38-gamma: 86
PAK6
  KinomeScan PAK6: 91
